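Five concentrations, 48 hours, 96-well plates. GI50 = concentration required for 50% inhibition of growth.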 Calls of active or inactive are those of the source. No stated cut-off is given here; in the data, active = GI50 up to about 1.1 µM and inactive = higher.

Seven compounds from ChEMBL document CHEMBL1201862, “PubChem BioAssay data set” (2004) can be followed below.

Test systems include HT-29; MDA-N; SK-MEL-5; MCF7; A549; M14; SK-MEL-28; SF-268; HCC 2998; UACC-257; SF-295; HCT-116; SW-620; MOLT-4; NCI/ADR-RES; TK-10; DU-145; CAKI-1; ACHN; 786-0.
Assay in all cases: growth of human tumour cells (NCI), 48 h

Take `CC(=O)OCC1C(C(C)OC(C)=O)CCC2C1CCC1(C)C(OC(C)=O)CCC21` (stereo not given): the GI50 in the assay on HT-29 is 16 µM (inactive); in the assay on MDA-N, 18.6 µM (inactive); with SK-MEL-5 it was 16.6 µM (inactive); in the assay on MCF7, 19.1 µM (inactive); in the assay on A549, 18.9 µM (inactive); in the assay with M14, 17.1 µM (inactive). Further, the GI50 with SK-MEL-28 was 15.7 µM (inactive); in the assay on SF-268, 23.9 µM (inactive); with HCC 2998, 18.8 µM (inactive); in the assay on UACC-257, 16.7 µM (inactive); with SF-295, 21 µM (inactive); with HCT-116, 15.8 µM (inactive). Moreover, the GI50 in the assay with SW-620 is 17.9 µM (inactive); in the assay on MOLT-4 it was 16.6 µM (inactive); with NCI/ADR-RES, 17 µM (inactive); in the assay on TK-10 it was > 100 µM (inactive); in the assay with DU-145 it was 83.9 µM (inactive); with CAKI-1, 37.4 µM (inactive). The GI50 was 14.8 µM (inactive) in the assay with ACHN and 22.6 µM (inactive) in the assay with 786-0.

As for `CCC(/C=C/C1OC(=O)C=CC1C)=C\C(C)C/C=C/C(C)=C/C(C)C(=O)C(C)C(O)C(C)C/C(C)=C/C(=O)O` (stereo not given), the GI50 was 3.01e-06 µM (active) in the assay with HT-29; 2.13e-06 µM (active) in the assay with MDA-N; 4.88e-05 µM (active) in the assay with SK-MEL-5; 1.03 µM (active) in the assay on MCF7; 0.946 µM (active) in the assay with A549; 5.27e-06 µM (active) in the assay on M14. Moreover, the GI50 is 2.65 µM (inactive) with SK-MEL-28; 4.07e-06 µM (active) in the assay on SF-268; 6.76e-06 µM (active) in the assay with HCC 2998; 1.62 µM (inactive) in the assay with UACC-257; 0.757 µM (active) in the assay with SF-295; 1.17 µM (inactive) in the assay with HCT-116. The GI50 in the assay on SW-620 was 1.11 µM (active); in the assay with MOLT-4, 1.06 µM (active); in the assay with NCI/ADR-RES, 0.000115 µM (active); in the assay on TK-10, 9.4e-05 µM (active); in the assay with DU-145, 0.000264 µM (active); in the assay with CAKI-1, 0.807 µM (active). Further, the GI50 in the assay with ACHN is 7.4e-06 µM (active); in the assay on 786-0, < 1e-06 µM (active).

In the case of `CC(C)(C)COC(=O)C(C)(C)NC(=O)C(CC(=O)OCc1ccccc1)NC(=O)OCc1ccccc1` (stereo not given), the GI50 with HT-29 was 24.8 µM (inactive); in the assay with MDA-N, 30.9 µM (inactive); with SK-MEL-5 it was 11.1 µM (inactive); with MCF7, 32.4 µM (inactive); in the assay on A549, 29.7 µM (inactive); in the assay on M14 it was 32.1 µM (inactive). Further, the GI50 was > 100 µM (inactive) in the assay with SK-MEL-28; 87.1 µM (inactive) in the assay with SF-268; 35.3 µM (inactive) in the assay with HCC 2998; 25.5 µM (inactive) with UACC-257; 34.4 µM (inactive) in the assay on SF-295; 32.7 µM (inactive) in the assay on HCT-116. Moreover, the GI50 with SW-620 was 60.4 µM (inactive); in the assay on MOLT-4, 17.6 µM (inactive); with NCI/ADR-RES, 36.8 µM (inactive); with TK-10, 19.4 µM (inactive); with DU-145, 62.2 µM (inactive); in the assay with CAKI-1 it was 58.2 µM (inactive). Moreover, the figures for the GI50 in the assay on ACHN and with 786-0 were 32.9 µM (inactive) and > 100 µM (inactive), respectively.

With `Cc1nc(Nc2ccc(Cl)c(Cl)c2)sc1C(/C=C/c1ccc2c(c1)OCO2)=N/Nc1ccc([N+](=O)[O-])cc1[N+](=O)[O-]`, the GI50 was > 100 µM (inactive) in the assay on HT-29; > 100 µM (inactive) with MDA-N; > 82.8 µM (inactive) in the assay with SK-MEL-5; > 100 µM (inactive) in the assay with MCF7; > 100 µM (inactive) in the assay with A549; 61.7 µM (inactive) in the assay on M14. Besides, the GI50 with SK-MEL-28 is > 100 µM (inactive); in the assay with SF-268, > 100 µM (inactive); in the assay on HCC 2998, > 78.5 µM (inactive); in the assay with UACC-257 it was > 100 µM (inactive); in the assay with SF-295, 53.3 µM (inactive); in the assay on HCT-116, 56.5 µM (inactive). In addition, the GI50 is > 100 µM (inactive) with SW-620; > 56.2 µM (inactive) in the assay on MOLT-4; > 100 µM (inactive) in the assay on NCI/ADR-RES; 66.5 µM (inactive) with TK-10; > 100 µM (inactive) in the assay on DU-145; > 46.5 µM (inactive) in the assay on CAKI-1. In addition, the GI50 was > 92 µM (inactive) in the assay on ACHN and 20.1 µM (inactive) with 786-0.

As for `CN(CCCN(C)CCc1ccc(Cl)c(Cl)c1)CCCN1CCCC1`, the GI50 with HT-29 is 0.55 µM (active); in the assay on MDA-N, 1.31 µM (inactive); in the assay on SK-MEL-5, 2.32 µM (inactive); in the assay on MCF7, 1.78 µM (inactive); in the assay with A549, 2.97 µM (inactive); in the assay with M14 it was 1.52 µM (inactive). Also, the GI50 in the assay with SK-MEL-28 is 1.5 µM (inactive); in the assay on SF-268, 2.12 µM (inactive); in the assay on HCC 2998, 0.305 µM (active); with UACC-257 it was 1.83 µM (inactive); with SF-295, 2.28 µM (inactive); in the assay on HCT-116, 1.73 µM (inactive). Moreover, the GI50 was 2.26 µM (inactive) with SW-620; 0.908 µM (active) with MOLT-4; 6.08 µM (inactive) in the assay on NCI/ADR-RES; 2.05 µM (inactive) with TK-10; 8.71 µM (inactive) in the assay on DU-145; 2.37 µM (inactive) in the assay with CAKI-1. Also, the GI50 is 7.11 µM (inactive) in the assay with ACHN and 1.26 µM (inactive) in the assay with 786-0.

As for `Cc1cc(-c2ccccc2)nc2oc(=O)n(C)c12`, the GI50 with HT-29, in the assay on MDA-N, with SK-MEL-5, with MCF7, in the assay on A549 and in the assay with M14 was > 100 µM (inactive) throughout. The GI50 in the assay on SK-MEL-28 is > 100 µM (inactive); in the assay on SF-268, > 100 µM (inactive); in the assay with HCC 2998 it was > 100 µM (inactive); in the assay with UACC-257, > 100 µM (inactive); with SF-295, 39.5 µM (inactive); in the assay with HCT-116, 75 µM (inactive). The GI50 in the assay on SW-620 was > 100 µM (inactive); in the assay on MOLT-4 it was > 100 µM (inactive); in the assay on NCI/ADR-RES it was > 100 µM (inactive); with TK-10, 34.4 µM (inactive); with DU-145 it was > 100 µM (inactive); in the assay with CAKI-1, 49.1 µM (inactive). Also, the GI50 with ACHN is > 100 µM (inactive); in the assay on 786-0, 37.8 µM (inactive).

Consider `C=CCNC(=O)/C(Cc1cc(Br)c(OC)c(Br)c1O)=N\O`, for which the GI50 in the assay with HT-29 is 15 µM (inactive); in the assay on MDA-N, 0.334 µM (active); in the assay with SK-MEL-5, 1.78 µM (inactive); in the assay on MCF7, 4.17 µM (inactive); with A549 it was 6.68 µM (inactive); with M14 it was 4.22 µM (inactive). In addition, the GI50 was 3.53 µM (inactive) in the assay on SK-MEL-28; 3.58 µM (inactive) in the assay on SF-268; 4.25 µM (inactive) with HCC 2998; 6.15 µM (inactive) with UACC-257; 3.64 µM (inactive) in the assay with SF-295; 3.01 µM (inactive) with HCT-116. In addition, the GI50 in the assay with SW-620 is 3.15 µM (inactive); in the assay on MOLT-4, 4.76 µM (inactive); in the assay on NCI/ADR-RES, 2.44 µM (inactive); in the assay with TK-10, 10.6 µM (inactive); in the assay on DU-145 it was 5.3 µM (inactive); in the assay with CAKI-1 it was 5.18 µM (inactive). Further, the GI50 in the assay on ACHN was 13.4 µM (inactive); in the assay on 786-0, 2.61 µM (inactive).
